As a reminder, the IC50 is the midpoint of a concentration-inhibition curve. The term Ki denotes the dissociation constant of the complex between target and ligand, obtained from inhibition or displacement. One may read the inhibition as the change of the read-out against control, counted positive when it falls.

We go through one compound from patent US20250115926A1, “DEREGULATED DHS AND TYRA ENZYMES OF GRASSES ENABLE EFFICIENT PRODUCTION OF BOTH TYROSINE AND PHENYLALANINE” (Wisconsin Alumni Research Foundation, priority 2023, published 2025).

Several values for one entry are separate records, joined by “and”; a condition that tells them apart may be missing. Identical values can stand only once.

In experiment [1] the target is T1, Sorghum bicolor SbTyrA1, SEQ ID NO: 39, recombinant (Sorghum bicolor, UniProt A0A194YLK4).
T1 construct: from genomic DNA
T1 sequence (A0A194YLK4 475-836): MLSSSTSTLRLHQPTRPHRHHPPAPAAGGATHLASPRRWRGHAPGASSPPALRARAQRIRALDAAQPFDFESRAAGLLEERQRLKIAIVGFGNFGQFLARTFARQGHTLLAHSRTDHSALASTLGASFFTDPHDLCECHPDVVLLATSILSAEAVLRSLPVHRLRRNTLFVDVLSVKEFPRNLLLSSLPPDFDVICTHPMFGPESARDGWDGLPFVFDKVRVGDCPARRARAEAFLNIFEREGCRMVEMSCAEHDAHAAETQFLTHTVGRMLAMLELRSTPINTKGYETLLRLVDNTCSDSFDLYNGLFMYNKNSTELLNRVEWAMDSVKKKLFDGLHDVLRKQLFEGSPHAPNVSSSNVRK
In words: TyrA arogenate dehydrogenase kinetics and tyrosine inhibition (340 nm). It is filed as biochemical. The text has this:
(§1) Next, to study the biochemical properties of grass TyrA enzymes, we generated and characterized recombinant purified TyrA proteins from Brachypodium (BdTyrA) and Sorghum (SbTyrA), two distantly related grass species^43, 44. Whereas TyrA enzymes from dicot plants are generally NADP^+-dependent arogenate dehydrogenases^20, 39, 45, except for NADP^+-prephenate dehydrogenases in the legume family^40, 46, previous reports on the substrate preference of grass TyrA enzymes are inconclusive^17, 19. […] NAD^+-prephenate dehydrogenase activity was absent in all cases, ruling out a significant contamination of the enzyme preparations with the TyrA enzyme from E. coli^47.48.

For experiment [2], the target named is T2, Brachypodium distachyon BdTyrAnc (non-canonical TyrA), SEQ ID NO: 37, recombinant (Brachypodium distachyon, UniProt I1GYB3).
T2 construct: from cDNA
T2 sequence (I1GYB3 58-361): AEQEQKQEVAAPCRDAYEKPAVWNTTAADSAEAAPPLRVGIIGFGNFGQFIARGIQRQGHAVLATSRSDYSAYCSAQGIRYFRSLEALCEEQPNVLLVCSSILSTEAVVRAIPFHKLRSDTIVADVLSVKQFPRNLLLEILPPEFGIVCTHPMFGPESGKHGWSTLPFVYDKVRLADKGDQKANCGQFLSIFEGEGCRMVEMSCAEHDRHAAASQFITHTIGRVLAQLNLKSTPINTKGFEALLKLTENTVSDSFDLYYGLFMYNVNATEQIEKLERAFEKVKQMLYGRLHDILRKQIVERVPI
Described as above. It is filed as biochemical.
Source text: as §1

Experiment [3] has as its target T3, Brachypodium distachyon BdTyrA2, SEQ ID NO: 35, recombinant (Brachypodium distachyon, UniProt I1GWX1).
T3 sequence (I1GWX1 55-365): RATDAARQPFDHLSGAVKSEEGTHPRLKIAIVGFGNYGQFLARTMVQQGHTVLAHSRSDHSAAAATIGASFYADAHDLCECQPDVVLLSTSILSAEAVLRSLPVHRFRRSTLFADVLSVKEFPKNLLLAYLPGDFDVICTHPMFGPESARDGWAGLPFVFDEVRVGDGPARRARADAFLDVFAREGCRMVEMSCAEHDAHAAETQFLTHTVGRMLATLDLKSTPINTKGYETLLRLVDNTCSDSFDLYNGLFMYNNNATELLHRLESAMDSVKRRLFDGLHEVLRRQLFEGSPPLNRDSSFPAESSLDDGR
The description is as above. It is filed as biochemical.
Source text: as §1

Experiment [4] deals with T4, Sorghum bicolor SbTyrA2, SEQ ID NO: 41, recombinant (Sorghum bicolor, UniProt C5Z9D2).
T4 construct: from genomic DNA
T4 sequence (C5Z9D2 53-389): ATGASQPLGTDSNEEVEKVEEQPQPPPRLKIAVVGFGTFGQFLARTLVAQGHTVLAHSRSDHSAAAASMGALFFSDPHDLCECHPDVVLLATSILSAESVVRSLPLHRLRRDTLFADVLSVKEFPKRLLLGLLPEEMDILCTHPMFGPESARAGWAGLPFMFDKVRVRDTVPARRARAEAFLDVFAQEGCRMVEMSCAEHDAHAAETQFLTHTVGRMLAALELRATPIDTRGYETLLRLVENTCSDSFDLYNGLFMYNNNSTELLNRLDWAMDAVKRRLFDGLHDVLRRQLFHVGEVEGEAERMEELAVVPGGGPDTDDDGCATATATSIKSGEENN
The description is as above. It is filed as biochemical.
Source text: as §1

Experiment [5] concerns the target Brachypodium distachyon BdDHS1a, SEQ ID NO: 1, recombinant (Brachypodium distachyon, UniProt I1GSB3). In words: DHS activity: kinetics and effector inhibition. To be noted: read-out: inhibition at 0.5 mM. From the text: (§2) To examine their functional properties, the recombinant DHS enzymes of Brachypodium were produced and characterized in vitro.
(§3) As recent studies have shown that plant DHS enzymes are feedback-inhibited by multiple effector molecules^15, 16, we tested the effect of AAAs and another 14 related metabolites, including various intermediates of the shikimate pathway and the pathways downstream of AAAs, on Brachypodium DHS enzymes.
(§4) The DHS assay for UHPLC-MS quantification was set up using the same settings as described in the previous paragraph for the UV-based DHS assay, which guaranteed at least 10 minutes of reaction linearity. After a 10-minute incubation, 20 μL of the reactions (out of a total volume of 50 μL) were mixed into 80 μL of methanol, vortexed and transferred to vials for injection. Analysis of DAHP by UHPLC-MS was conducted using the same chromatographic settings as described for the UHPLC-MS analysis of soluble metabolites and compared with an authentic DAHP standard (Sta. Cruz biotechnology, cat. no. sc-216432).

Experiment [6] deals with Brachypodium distachyon BdDHS1b, SEQ ID NO: 3, recombinant (Brachypodium distachyon, UniProt I1H4W3). The experiment can be described thus: DHS activity: kinetics and effector inhibition. It is filed as biochemical. To be noted: read-out: inhibition at 0.5 mM.
Sequence of Brachypodium distachyon BdDHS1b, SEQ ID NO: 3, recombinant (I1H4W3 37-542): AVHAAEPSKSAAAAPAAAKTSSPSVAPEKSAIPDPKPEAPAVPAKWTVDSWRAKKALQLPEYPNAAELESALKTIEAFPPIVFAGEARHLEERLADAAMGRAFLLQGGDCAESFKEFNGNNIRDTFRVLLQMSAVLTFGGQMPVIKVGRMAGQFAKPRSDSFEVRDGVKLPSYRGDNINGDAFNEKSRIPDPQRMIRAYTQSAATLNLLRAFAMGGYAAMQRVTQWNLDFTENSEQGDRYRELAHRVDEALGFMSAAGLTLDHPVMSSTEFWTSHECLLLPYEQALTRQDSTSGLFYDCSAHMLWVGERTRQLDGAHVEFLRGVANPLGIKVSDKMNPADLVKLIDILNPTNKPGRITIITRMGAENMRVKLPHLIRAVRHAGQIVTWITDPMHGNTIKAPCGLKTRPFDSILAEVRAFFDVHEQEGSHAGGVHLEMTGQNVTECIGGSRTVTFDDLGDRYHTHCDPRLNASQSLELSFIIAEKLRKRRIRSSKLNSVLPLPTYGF
Source text: as §2, §3, §4

Experiment [7] deals with Brachypodium distachyon BdDHS2, SEQ ID NO: 5, recombinant (Brachypodium distachyon, UniProt I1I809). In words: DHS activity: kinetics and effector inhibition. It is filed as biochemical. The conditions noted are these: read-out: inhibition at 0.5 mM.
Sequence of Brachypodium distachyon BdDHS2, SEQ ID NO: 5, recombinant (I1I809 31-503): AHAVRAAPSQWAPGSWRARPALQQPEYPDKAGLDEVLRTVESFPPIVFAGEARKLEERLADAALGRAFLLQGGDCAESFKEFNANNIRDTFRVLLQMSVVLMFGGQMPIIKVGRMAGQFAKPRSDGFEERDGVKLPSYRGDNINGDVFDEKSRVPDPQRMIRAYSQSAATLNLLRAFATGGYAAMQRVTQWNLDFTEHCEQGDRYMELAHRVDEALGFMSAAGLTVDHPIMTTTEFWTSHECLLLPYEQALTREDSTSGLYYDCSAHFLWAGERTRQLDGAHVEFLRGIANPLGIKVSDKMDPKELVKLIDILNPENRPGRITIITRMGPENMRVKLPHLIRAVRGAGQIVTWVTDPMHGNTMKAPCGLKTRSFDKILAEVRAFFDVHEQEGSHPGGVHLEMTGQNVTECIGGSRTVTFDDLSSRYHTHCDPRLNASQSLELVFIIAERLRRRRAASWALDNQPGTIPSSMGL
Source text: as §2, §3, §4

The test system of experiment [8] is recombinant Sorghum DHS enzymes. In words: DHS activity: effector inhibition. It is filed as biochemical, Sorghum bicolor. The conditions noted are these: 0.5 mM (FIG. 17). As for the experimental part: In contrast, BdDHS1b was not inhibited by arogenate even up to 2.5 mM. In fact, DHS1b activity increased in the presence of high concentrations of arogenate (FIG. 4F), likely due to high concentrations of contaminant NaCl present in the arogenate preparation (FIG. 16). Under acidic conditions, arogenate is known to undergo a spontaneous dehydration and decarboxylation into […]. […] Like in Brachypodium DHS enzymes, 0.5 mM arogenate inhibited SbDHS1a and SbDHS2 at ˜50% and ˜40%, respectively, but had no effect on SbDHS1b.

The mark [9] stands for this setting: IC50 (tyrosine), 0.5 mM arogenate, 1 mM NADP^+.
Setting [10] is: calculated from Km and IC50, competitive inhibition model.

Sequence of Brachypodium distachyon BdDHS1a, SEQ ID NO: 1, recombinant (I1GSB3 46-537): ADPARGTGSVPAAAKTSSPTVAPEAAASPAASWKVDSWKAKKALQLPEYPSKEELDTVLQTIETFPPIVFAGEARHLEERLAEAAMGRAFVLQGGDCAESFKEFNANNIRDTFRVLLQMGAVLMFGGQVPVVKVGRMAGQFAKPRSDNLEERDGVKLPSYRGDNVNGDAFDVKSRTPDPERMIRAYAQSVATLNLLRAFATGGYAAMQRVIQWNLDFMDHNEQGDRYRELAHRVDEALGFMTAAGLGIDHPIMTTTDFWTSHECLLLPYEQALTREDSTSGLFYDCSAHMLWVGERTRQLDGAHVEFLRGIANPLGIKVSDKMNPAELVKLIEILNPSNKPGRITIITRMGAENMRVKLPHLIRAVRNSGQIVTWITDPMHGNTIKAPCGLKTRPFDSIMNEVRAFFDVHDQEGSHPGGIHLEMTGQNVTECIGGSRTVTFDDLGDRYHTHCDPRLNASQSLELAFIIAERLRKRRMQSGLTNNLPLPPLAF

As for `N[C@@H](Cc1ccc(O)cc1)C(=O)O` [tyrosine], the IC50 is 71 µM in experiment [1]; 242 ± 45 µM in experiment [2] (setting [9]); ~20 µM and 20 µM in experiment [3] (setting [9]); 47 ± 23 µM in experiment [4]. The inhibitory constant (Ki) is 53 ± 10 µM in experiment [1], 64 ± 25 µM in experiment [2] (setting [10]), 8 ± 2 µM in experiment [3] (setting [10]) and 36 ± 13 µM in experiment [4]. Also, in experiment [2] (read-out: activity retained at 200 μM of tyrosine), the activity at 200 µM was > 50%. Also, the “mode of inhibition by tyrosine” value in experiment [2] (with respect to arogenate) was “competitive with arogenate”. Moreover, the “activity at 200 μM of tyrosine” value in experiment [3] (200 μM tyrosine) is “fully inactive”. In addition, the results for the inhibition at 500 µM in experiment [5], in experiment [6] and in experiment [7] were ~25%, ~10% and ~10%, respectively. In experiment [8], the “inhibition at 0.5 mM” value is “no strong inhibition”.
